Assay results from US6737383B1, “Herbicidal oxadiazolidines” (priority 1999, dated 2004).

Columns and labels:
cocklebur = assay: Test B pre/postemergence cocklebur; type: in vivo, Xanthium strumarium
How it was run: (§1)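 Herbicidal effect was estimated by eye on a ten-point control scale after plants spent twelve to sixteen days in a greenhouse following soil or foliar treatment. Foliar sprays targeted plants at one to four leaves; all doses were formulated in a non-phytotoxic solvent with surfactant.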

sugar beet = assay: Test B pre/postemergence sugar beet; type: in vivo, Beta vulgaris
How it was run: as §1

wild oat = assay: Test B pre/postemergence wild oat; type: in vivo, Avena fatua
How it was run: as §1

surinam grass = assay: Test B pre/postemergence surinam grass; type: in vivo, Brachiaria decumbens
How it was run: as §1

rice = assay: Test B flood test rice; type: in vivo, Oryza sativa
How it was run: (§2)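 Each value is a visual injury score relative to controls, with 10 meaning complete control and 0 no effect. Evaluation took place twelve to sixteen days after the 2-leaf-stage plants were treated and kept in the greenhouse.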

blackgrass = assay: Test B pre/postemergence blackgrass; type: in vivo, Alopecurus myosuroides
How it was run: as §1

rape = assay: Test B pre/postemergence rape; type: in vivo, Brassica napus
How it was run: as §1

bamyardgrass = assay: Test B flood test barnyardgrass; type: in vivo, Echinochloa crus-galli
How it was run: as §2

velvetleaf = assay: Test B pre/postemergence velvetleaf; type: in vivo, Abutilon theophrasti
How it was run: as §1

pigweed = assay: Test B pre/postemergence pigweed; type: in vivo, Amaranthus retroflexus
How it was run: as §1

smallflower flatsedge = assay: Test B flood test smallflower flatsedge; type: in vivo, Cyperus difformis
How it was run: as §2

morningglory = assay: Test B pre/postemergence morningglory; type: in vivo, Ipomoea hederacea
How it was run: as §1

corn = assay: Test B pre/postemergence corn; type: in vivo, Zea mays
How it was run: as §1

purple nutsedge = assay: Test B pre/postemergence purple nutsedge; type: in vivo, Cyperus rotundus
How it was run: as §1

soybean = assay: Test B pre/postemergence soybean; type: in vivo, Glycine max
How it was run: as §1

bedstraw = assay: Test B pre/postemergence bedstraw; type: in vivo, Galium aparine
How it was run: as §1

[1] = Preemergence, Rate 62 g/ha, scale of 0 to 10 where 0 is no effect and 10 is complete control
[2] = Preemergence, Rate 125 g/ha, 0 is no effect, 10 is complete control
[3] = Preemergence, Rate 250 g/ha, scale 0 to 10, 0 is no effect, 10 is complete control
[4] = Preemergence, Rate 500 g/ha, scale of 0 to 10 where 0 is no effect and 10 is complete control
[5] = Rate 62 g/ha, Postemergence, scale of 0 to 10 where 0 is no effect and 10 is complete control
[6] = Rate 125 g/ha, Postemergence, scale 0 to 10
[7] = Rate 500 g/ha, Postemergence, scale 0 to 10
[8] = Rate 62 g/ha, headed Pre-emergence (flood test species), scale 0 to 10 (0 no effect, 10 complete control)
[9] = Rate 125 g/ha, Pre-emergence, flood test species, scale 0 to 10 where 0 is no effect and 10 is complete control
[10] = Rate 250 g/ha, Pre-emergence, flood-test species, scale 0 to 10, 0 is no effect, 10 is complete control
[11] = Rate 500 g/ha, headed Pre-emergence (flood test species), scale 0 to 10 (0 no effect, 10 complete control)

Cc1ccccc1-n1c(=O)on(C(=O)N(c2ccccc2F)C(C)C)c1=O [Compound 204]
Cocklebur plant response rating (cocklebur; [1]): 0 | Cocklebur plant response rating (0 to 10 scale) (cocklebur; [2]): 0 | Cocklebur plant response rating (cocklebur; [3]): 0 | Plant response rating, Cocklebur (cocklebur; [4]): 0 | Cocklebur plant response rating (cocklebur; [5]): 0 | Cocklebur plant response rating (cocklebur; [6]): 0 | Plant response rating (0 to 10; 0 is no effect, 10 is complete control), Cocklebur (cocklebur; Rate 250 g/ha, Postemergence): 1 | Cocklebur plant response rating (cocklebur; [7]): 1 | Sugarbeets plant response rating (sugar beet; [1]): 0 | Sugarbeets plant response rating (0 to 10 scale) (sugar beet; [2]): 0 | Sugarbeets plant response rating (sugar beet; [3]): 0 | Plant response rating, Sugarbeets (sugar beet; [4]): 0 | Sugarbeets plant response rating (sugar beet; [5]): 0 | Sugarbeets plant response rating (sugar beet; [6]): 0 | Plant response rating (0 to 10; 0 is no effect, 10 is complete control), Sugarbeets (sugar beet; Rate 250 g/ha, Postemergence): 0 | Sugarbeets plant response rating (sugar beet; [7]): 0 | Wild oats plant response rating (wild oat; [1]): 0 | Wild oats plant response rating (wild oat; [3]): 3 | Plant response rating, Wild oats (wild oat; [4]): 6 | Wild oats plant response rating (wild oat; [5]): 0 | Wild oats plant response rating (wild oat; [6]): 0 | Plant response rating (0 to 10; 0 is no effect, 10 is complete control), Wild oats (wild oat; Rate 250 g/ha, Postemergence): 0 | B. signalgrass plant response rating (surinam grass; [1]): 0 | B. signalgrass plant response rating (0 to 10 scale) (surinam grass; [2]): 0 | B. signalgrass plant response rating (surinam grass; [3]): 0 | Plant response rating, B. signalgrass (surinam grass; [4]): 2 | B. signalgrass plant response rating (surinam grass; [5]): 0 | B. signalgrass plant response rating (surinam grass; Rate 125 g/ha, Postemergence, scale 0 (no effect) to 10 (complete control)): 0 | Plant response rating, B. signalgrass (surinam grass; Rate 250 g/ha, Postemergence, scale 0 to 10, 0 is no effect, 10 is complete control): 0 | B. signalgrass plant response rating (surinam grass; Rate 500 g/ha, Postemergence, scale 0 to 10, 0 no effect, 10 complete control): 0 | Rice plant response rating (rice; [8]): 0 | Rice plant response rating (rice; [9]): 0 | Rice plant response rating (rice; [10]): 0 | Plant response rating, Rice (rice; [11]): 0 | Blackgrass plant response rating (blackgrass; [1]): 0 | Blackgrass plant response rating (0 to 10 scale) (blackgrass; [2]): 2 | Blackgrass plant response rating (blackgrass; [3]): 2 | Plant response rating, Blackgrass (blackgrass; [4]): 5 | Blackgrass plant response rating (blackgrass; [5]): 0 | Blackgrass plant response rating (blackgrass; [6]): 2 | Plant response rating (0 to 10; 0 is no effect, 10 is complete control), Blackgrass (blackgrass; Rate 250 g/ha, Postemergence): 3 | Blackgrass plant response rating (blackgrass; [7]): 7 | Rape plant response rating (rape; [1]): 0 | Rape plant response rating (0 to 10 scale) (rape; [2]): 0 | Rape plant response rating (rape; [3]): 0 | Plant response rating, Rape (rape; [4]): 3 | Rape plant response rating (rape; [5]): 0 | Rape plant response rating (rape; [6]): 0 | Plant response rating (0 to 10; 0 is no effect, 10 is complete control), Rape (rape; Rate 250 g/ha, Postemergence): 0 | Rape plant response rating (rape; [7]): 0 | Barnyardgrass plant response rating (bamyardgrass; [8]): 0 | Barnyardgrass plant response rating (bamyardgrass; [9]): 0 | Barnyardgrass plant response rating (bamyardgrass; [10]): 0 | Plant response rating, Barnyardgrass (bamyardgrass; [11]): 0 | Velvetleaf plant response rating (velvetleaf; [1]): 0 | Velvetleaf plant response rating (velvetleaf; [3]): 0 | Plant response rating, Velvetleaf (velvetleaf; [4]): 0 | Velvetleaf plant response rating (velvetleaf; [5]): 0 | Velvetleaf plant response rating (velvetleaf; [6]): 1 | Plant response rating (0 to 10; 0 is no effect, 10 is complete control), Velvetleaf (velvetleaf; Rate 250 g/ha, Postemergence): 1 | Redroot pigweed plant response rating (pigweed; [1]): 0 | Redroot pigweed plant response rating (0 to 10 scale) (pigweed; [2]): 0 | Redroot pigweed plant response rating (pigweed; [3]): 0 | Plant response rating, Redroot pigweed (pigweed; [4]): 0 | Redroot pigweed plant response rating (pigweed; [5]): 0 | Redroot pigweed plant response rating (pigweed; [6]): 0 | Plant response rating (0 to 10; 0 is no effect, 10 is complete control), Redroot pigweed (pigweed; Rate 250 g/ha, Postemergence): 4 | Redroot pigweed plant response rating (pigweed; [7]): 7 | S. Flatsedge plant response rating (smallflower flatsedge; [8]): 0 | S. Flatsedge plant response rating (smallflower flatsedge; [9]): 0 | S. Flatsedge plant response rating (smallflower flatsedge; [10]): 0 | S. Flatsedge plant response rating (smallflower flatsedge; Rate 500 g/ha, Pre-emergence, flood test species, scale 0 to 10 (0 no effect, 10 complete control)): 0 | Morningglory plant response rating (morningglory; [1]): 0 | Morningglory plant response rating (0 to 10 scale) (morningglory; [2]): 0 | Morningglory plant response rating (morningglory; [3]): 0 | Plant response rating, Morningglory (morningglory; [4]): 0 | Morningglory plant response rating (morningglory; [5]): 3 | Morningglory plant response rating (morningglory; [6]): 3 | Plant response rating (0 to 10; 0 is no effect, 10 is complete control), Morningglory (morningglory; Rate 250 g/ha, Postemergence): 3 | Morningglory plant response rating (morningglory; [7]): 8 | Corn plant response rating (corn; [1]): 0 | Corn plant response rating (0 to 10 scale) (corn; [2]): 0 | Corn plant response rating (corn; [3]): 0 | Plant response rating, Corn (corn; [4]): 2 | Corn plant response rating (corn; [5]): 0 | Corn plant response rating (corn; [6]): 0 | Plant response rating (0 to 10; 0 is no effect, 10 is complete control), Corn (corn; Rate 250 g/ha, Postemergence): 0 | Corn plant response rating (corn; [7]): 0 | Nutsedge plant response rating (purple nutsedge; [1]): 0 | Nutsedge plant response rating (0 to 10 scale) (purple nutsedge; [2]): 0 | Nutsedge plant response rating (purple nutsedge; [3]): 0 | Plant response rating, Nutsedge (purple nutsedge; [4]): 0 | Nutsedge plant response rating (purple nutsedge; [5]): 0 | Nutsedge plant response rating (purple nutsedge; [6]): 0 | Plant response rating (0 to 10; 0 is no effect, 10 is complete control), Nutsedge (purple nutsedge; Rate 250 g/ha, Postemergence): 0 | Nutsedge plant response rating (purple nutsedge; [7]): 0 | Soybean plant response rating (soybean; [1]): 0 | Soybean plant response rating (0 to 10 scale) (soybean; [2]): 0 | Soybean plant response rating (soybean; [3]): 0 | Plant response rating, Soybean (soybean; [4]): 0 | Soybean plant response rating (soybean; [5]): 1 | Soybean plant response rating (soybean; [6]): 1 | Plant response rating (0 to 10; 0 is no effect, 10 is complete control), Soybean (soybean; Rate 250 g/ha, Postemergence): 1 | Soybean plant response rating (soybean; [7]): 7 | Bedstraw plant response rating (bedstraw; [1]): 0 | Bedstraw plant response rating (0 to 10 scale) (bedstraw; [2]): 0 | Bedstraw plant response rating (bedstraw; [3]): 0 | Plant response rating, Bedstraw (bedstraw; [4]): 0 | Bedstraw plant response rating (bedstraw; [5]): 0 | Bedstraw plant response rating (bedstraw; [6]): 0 | Plant response rating (0 to 10; 0 is no effect, 10 is complete control), Bedstraw (bedstraw; Rate 250 g/ha, Postemergence): 6 | Bedstraw plant response rating (bedstraw; [7]): 7
